Source: ChEMBL document CHEMBL1201862, “PubChem BioAssay data set” (2004)
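1) Cells in 96-well plates. 2) Compound, 48 h, 5 concentrations. 3) Linear interpolation between surrounding doses. 4) Unreached endpoint = highest concentration. GI50 = concentration required for 50% inhibition of growth.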 Calls of active or inactive are those of the source. Rule as the data show it: active = GI50 up to about 1.1 µM and inactive = higher. Where a SMILES comes first, the peptide text is derived from it. The star is where a group is joined. Boc = CC(C)(C)OC(=O)*

How the values were obtained:
Test in all cases: growth of human tumour cells (NCI), 48 h
A549 = test system: A549
U-251 = test system: U-251
NCI-H23 = test system: NCI-H23
MDA-MB-435 = test system: MDA-MB-435
CAKI-1 = test system: CAKI-1
UACC-62 = test system: UACC-62
IGROV-1 = test system: IGROV-1
NCI-H522 = test system: NCI-H522
NCI-H460 = test system: NCI-H460
OVCAR-3 = test system: OVCAR-3
ACHN = test system: ACHN
SK-MEL-5 = test system: SK-MEL-5
SNB-19 = test system: SNB-19
SR = test system: SR
KM12 = test system: KM12
PC-3 = test system: PC-3
Malme-3M = test system: Malme-3M
BT-549 = test system: BT-549
SK-MEL-28 = test system: SK-MEL-28

Measured: GI50

Cn1ccc(C(=O)NCCN(CCNC(=O)c2ccn(C)c(=O)c2O)CCNC(=O)c2cccc(=O)n2O)c(O)c1=O
inactive: A549 > 100 µM | U-251 > 100 µM | NCI-H23 > 100 µM | MDA-MB-435 > 100 µM | CAKI-1 > 100 µM | UACC-62 > 100 µM | IGROV-1 29.2 µM | NCI-H522 > 100 µM | NCI-H460 > 100 µM | OVCAR-3 > 100 µM | ACHN > 100 µM | SK-MEL-5 > 100 µM | SNB-19 > 100 µM | SR > 100 µM | KM12 56.4 µM | PC-3 > 100 µM | Malme-3M > 100 µM | BT-549 > 100 µM | SK-MEL-28 > 100 µM

Cc1cc(C)nc(NS(=O)(=O)c2ccc(NC(=O)c3c4ccccc4nc4ccccc34)cc2)n1
inactive: A549 > 100 µM | U-251 69.3 µM | NCI-H23 44.2 µM | MDA-MB-435 > 100 µM | CAKI-1 87.3 µM | UACC-62 > 100 µM | IGROV-1 31.2 µM | NCI-H522 64.3 µM | NCI-H460 > 100 µM | OVCAR-3 56.9 µM | ACHN 84.7 µM | SK-MEL-5 38.1 µM | SNB-19 > 100 µM | SR > 100 µM | KM12 47 µM | PC-3 > 100 µM | Malme-3M 17.4 µM | BT-549 96.4 µM | SK-MEL-28 > 100 µM

Cc1cc(NC2=CC(=O)C(=O)c3ccccc32)no1
inactive: A549 5 µM | U-251 3.92 µM | NCI-H23 1.54 µM | MDA-MB-435 1.88 µM | CAKI-1 5.71 µM | UACC-62 3.23 µM | IGROV-1 8.28 µM | NCI-H522 18.5 µM | NCI-H460 6.87 µM | OVCAR-3 3.85 µM | ACHN 11.7 µM | SK-MEL-5 2.26 µM | SNB-19 16.2 µM | SR 7.16 µM | KM12 12.6 µM | PC-3 10.3 µM | Malme-3M 2.49 µM | BT-549 5.53 µM | SK-MEL-28 13.5 µM

C[C@]12C=CC(=O)C=C1CC[C@@H]1[C@@H]2C(=O)C[C@@]2(C)[C@H]1CC[C@]2(O)C(=O)CO [PREDNISONE]
inactive: A549 > 100 µM | U-251 > 100 µM | NCI-H23 > 100 µM | MDA-MB-435 > 100 µM | CAKI-1 > 100 µM | UACC-62 > 100 µM | IGROV-1 > 100 µM | NCI-H522 > 100 µM | NCI-H460 > 100 µM | OVCAR-3 > 100 µM | ACHN > 100 µM | SK-MEL-5 > 100 µM | SNB-19 > 100 µM | SR > 100 µM | KM12 > 100 µM | PC-3 > 100 µM | Malme-3M > 100 µM | BT-549 > 100 µM | SK-MEL-28 > 100 µM

CSc1ccc(NC(=O)Nc2cc(C)ccn2)cc1
inactive: A549 > 100 µM | U-251 > 100 µM | NCI-H23 > 100 µM | MDA-MB-435 > 100 µM | CAKI-1 > 100 µM | UACC-62 > 100 µM | IGROV-1 > 100 µM | NCI-H522 > 100 µM | NCI-H460 > 100 µM | OVCAR-3 > 100 µM | ACHN > 100 µM | SK-MEL-5 > 100 µM | SNB-19 > 100 µM | SR > 100 µM | KM12 > 100 µM | PC-3 > 100 µM | Malme-3M > 100 µM | BT-549 > 100 µM | SK-MEL-28 > 100 µM

COc1ccccc1Cn1c2c(c3c(C(=O)NCCN(C)C)c(O)ccc31)C(=O)c1ccccc1C2=O
active: SR 0.291 µM
inactive: A549 1.82 µM | U-251 1.91 µM | NCI-H23 1.83 µM | MDA-MB-435 1.69 µM | CAKI-1 2.04 µM | UACC-62 1.83 µM | IGROV-1 1.68 µM | NCI-H522 1.69 µM | NCI-H460 2.09 µM | OVCAR-3 1.99 µM | ACHN 1.64 µM | SK-MEL-5 1.74 µM | SNB-19 2.03 µM | KM12 1.59 µM | PC-3 2.09 µM | Malme-3M 1.63 µM | BT-549 7.13 µM | SK-MEL-28 1.71 µM

CCCCC(=O)c1c(O)ccc2c(C)cc(=O)oc12
inactive: A549 73.3 µM | U-251 > 100 µM | NCI-H23 99.8 µM | MDA-MB-435 > 100 µM | CAKI-1 68.9 µM | UACC-62 > 100 µM | IGROV-1 95.5 µM | NCI-H522 58.2 µM | NCI-H460 53.1 µM | OVCAR-3 > 100 µM | ACHN 96.6 µM | SK-MEL-5 53.5 µM | SNB-19 > 100 µM | SR 40.7 µM | KM12 > 100 µM | PC-3 > 100 µM | Malme-3M 39.9 µM | BT-549 37.6 µM | SK-MEL-28 > 100 µM

Cc1cccc2c1NC(=O)/C2=N\Nc1ccccc1[N+](=O)[O-]
inactive: A549 4.49 µM | U-251 2.37 µM | NCI-H23 6.67 µM | MDA-MB-435 22.6 µM | CAKI-1 8.09 µM | UACC-62 14.5 µM | IGROV-1 2.37 µM | NCI-H460 6.9 µM | OVCAR-3 8.13 µM | ACHN 2.97 µM | SK-MEL-5 6.93 µM | SNB-19 30.5 µM | SR 2.7 µM | KM12 6.93 µM | PC-3 10.9 µM | Malme-3M 9.64 µM | BT-549 20.4 µM | SK-MEL-28 37.3 µM
active: NCI-H522 0.871 µM

CC(NC(=O)C(NC(=O)OC(C)(C)C)C(C)C)C(=O)NCC(=O)O (stereo not drawn) (Boc-Val-Ala-Gly-OH; configuration not given here)
inactive: A549 > 100 µM | U-251 > 100 µM | NCI-H23 > 100 µM | MDA-MB-435 > 100 µM | CAKI-1 > 100 µM | UACC-62 > 100 µM | IGROV-1 > 100 µM | NCI-H522 > 100 µM | NCI-H460 > 100 µM | OVCAR-3 > 100 µM | ACHN > 100 µM | SK-MEL-5 > 100 µM | SNB-19 > 100 µM | SR > 100 µM | KM12 > 100 µM | PC-3 > 100 µM | Malme-3M > 100 µM | BT-549 > 100 µM | SK-MEL-28 > 100 µM

CCOC(=O)C1C(=O)CC(C)(O)C(C(=O)OCC)C1c1ccc(OC)cc1 (stereo unspecified)
inactive: A549 > 100 µM | U-251 > 100 µM | NCI-H23 > 100 µM | MDA-MB-435 > 100 µM | CAKI-1 > 100 µM | UACC-62 > 100 µM | IGROV-1 > 100 µM | NCI-H522 > 100 µM | NCI-H460 > 100 µM | OVCAR-3 > 100 µM | ACHN > 100 µM | SK-MEL-5 > 100 µM | SNB-19 > 100 µM | SR > 100 µM | KM12 > 100 µM | PC-3 > 100 µM | Malme-3M > 100 µM | BT-549 > 100 µM | SK-MEL-28 > 100 µM

COc1cc2cc(C(=O)N3CC(CCl)c4c3cc([N+](C)(C)Cc3ccc([N+](=O)[O-])n3C)c3ccccc43)[nH]c2c(OC)c1OC (stereo unspecified)
active: A549 0.074 µM | NCI-H23 0.472 µM | NCI-H522 0.0638 µM | NCI-H460 0.327 µM | ACHN 0.381 µM | SR < 0.0385 µM | PC-3 0.184 µM
inactive: U-251 2.33 µM | MDA-MB-435 3.79 µM | CAKI-1 1.71 µM | UACC-62 1.12 µM | IGROV-1 1.58 µM | OVCAR-3 4.06 µM | SK-MEL-5 1.32 µM | SNB-19 3.44 µM | KM12 2.14 µM | Malme-3M 3.79 µM | BT-549 2.51 µM | SK-MEL-28 2.33 µM

CC1=NN2C(=O)CC(=O)N=C2S1
inactive: A549 > 100 µM | U-251 > 100 µM | NCI-H23 > 100 µM | MDA-MB-435 > 100 µM | CAKI-1 > 100 µM | UACC-62 > 100 µM | IGROV-1 > 100 µM | NCI-H522 > 100 µM | NCI-H460 > 100 µM | OVCAR-3 > 100 µM | ACHN > 100 µM | SK-MEL-5 > 100 µM | SNB-19 > 100 µM | SR > 100 µM | KM12 > 100 µM | PC-3 > 100 µM | Malme-3M > 100 µM | BT-549 > 100 µM | SK-MEL-28 > 100 µM

O=C1c2ccccc2CN1c1ccc(OCCN2CCCCC2)cc1
inactive: A549 > 10 µM | U-251 > 10 µM | NCI-H23 > 10 µM | MDA-MB-435 > 10 µM | CAKI-1 > 10 µM | UACC-62 > 10 µM | IGROV-1 > 10 µM | NCI-H522 > 10 µM | NCI-H460 > 10 µM | OVCAR-3 > 10 µM | ACHN > 10 µM | SK-MEL-5 > 10 µM | SNB-19 > 10 µM | SR > 10 µM | KM12 > 10 µM | PC-3 > 10 µM | Malme-3M > 10 µM | BT-549 > 10 µM | SK-MEL-28 > 10 µM

Cc1c(O)c(OC2OC(CO)C(O)C(O)C2O)cc2c1CC[C@@H]1C2(C)C(=O)C[C@]2(C)[C@@H]([C@@](C)(O)C(O)/C=C/C(C)(C)O)[C@H](O)C[C@@]12C (stereo partly specified)
inactive: A549 > 100 µM | U-251 > 100 µM | NCI-H23 > 100 µM | MDA-MB-435 > 100 µM | CAKI-1 > 100 µM | UACC-62 > 100 µM | IGROV-1 > 100 µM | NCI-H522 > 100 µM | NCI-H460 > 100 µM | OVCAR-3 > 100 µM | ACHN > 100 µM | SK-MEL-5 > 100 µM | SNB-19 > 100 µM | SR > 100 µM | KM12 > 100 µM | PC-3 > 100 µM | Malme-3M > 100 µM | BT-549 > 100 µM | SK-MEL-28 > 100 µM
